What was measured:
[1] = target: 5-hydroxytryptamine receptor 2B (Homo sapiens, UniProt P41595); assay: Selectivity interaction (GPCR panel (PDSP screen)) EUB0000311b HTR2B; settings: at 10 µM
[2] = target: Protein kinase C theta type (Homo sapiens, UniProt Q04759); assay: Selectivity interaction (KinomeScan (DiscoverX)) EUB0001079a PRKCQ; settings: at 1 µM
[3] = target: Serine/threonine-protein kinase OSR1 (Homo sapiens) (UniProt O95747); settings: at 10 µM
[4] = target: T1, Inhibitor of nuclear factor kappa-B kinase subunit epsilon (Homo sapiens) (UniProt Q14164); assay: Selectivity interaction (KinomeScan (DiscoverX)) EUB0001619a IKBKE; settings: at 1 µM
T1 sequence (whole entry): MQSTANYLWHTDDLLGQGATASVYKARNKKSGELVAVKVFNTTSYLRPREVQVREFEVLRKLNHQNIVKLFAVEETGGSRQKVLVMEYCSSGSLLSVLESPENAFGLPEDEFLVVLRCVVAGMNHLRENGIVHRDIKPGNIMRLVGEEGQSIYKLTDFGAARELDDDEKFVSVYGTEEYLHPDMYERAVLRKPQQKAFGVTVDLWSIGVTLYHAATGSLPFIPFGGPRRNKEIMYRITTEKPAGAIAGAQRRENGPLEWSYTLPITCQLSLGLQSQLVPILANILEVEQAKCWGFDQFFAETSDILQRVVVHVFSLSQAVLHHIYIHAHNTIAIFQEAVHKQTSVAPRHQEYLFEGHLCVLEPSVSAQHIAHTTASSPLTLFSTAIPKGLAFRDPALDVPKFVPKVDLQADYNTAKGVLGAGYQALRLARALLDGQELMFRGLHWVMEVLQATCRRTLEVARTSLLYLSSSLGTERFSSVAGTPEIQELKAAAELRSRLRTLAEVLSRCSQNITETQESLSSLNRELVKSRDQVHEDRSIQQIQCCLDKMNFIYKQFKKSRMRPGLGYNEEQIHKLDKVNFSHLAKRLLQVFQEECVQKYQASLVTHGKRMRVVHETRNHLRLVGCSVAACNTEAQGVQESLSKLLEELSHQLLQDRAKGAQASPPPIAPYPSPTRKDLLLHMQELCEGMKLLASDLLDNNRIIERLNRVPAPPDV

[5] = target: T2, Discoidin domain-containing receptor 2 (Homo sapiens) (UniProt Q16832); assay: Selectivity interaction (Upstate Kinase Profiler service (Millipore)) EUB0000056c DDR2; settings: at 1 µM
T2 sequence (whole entry): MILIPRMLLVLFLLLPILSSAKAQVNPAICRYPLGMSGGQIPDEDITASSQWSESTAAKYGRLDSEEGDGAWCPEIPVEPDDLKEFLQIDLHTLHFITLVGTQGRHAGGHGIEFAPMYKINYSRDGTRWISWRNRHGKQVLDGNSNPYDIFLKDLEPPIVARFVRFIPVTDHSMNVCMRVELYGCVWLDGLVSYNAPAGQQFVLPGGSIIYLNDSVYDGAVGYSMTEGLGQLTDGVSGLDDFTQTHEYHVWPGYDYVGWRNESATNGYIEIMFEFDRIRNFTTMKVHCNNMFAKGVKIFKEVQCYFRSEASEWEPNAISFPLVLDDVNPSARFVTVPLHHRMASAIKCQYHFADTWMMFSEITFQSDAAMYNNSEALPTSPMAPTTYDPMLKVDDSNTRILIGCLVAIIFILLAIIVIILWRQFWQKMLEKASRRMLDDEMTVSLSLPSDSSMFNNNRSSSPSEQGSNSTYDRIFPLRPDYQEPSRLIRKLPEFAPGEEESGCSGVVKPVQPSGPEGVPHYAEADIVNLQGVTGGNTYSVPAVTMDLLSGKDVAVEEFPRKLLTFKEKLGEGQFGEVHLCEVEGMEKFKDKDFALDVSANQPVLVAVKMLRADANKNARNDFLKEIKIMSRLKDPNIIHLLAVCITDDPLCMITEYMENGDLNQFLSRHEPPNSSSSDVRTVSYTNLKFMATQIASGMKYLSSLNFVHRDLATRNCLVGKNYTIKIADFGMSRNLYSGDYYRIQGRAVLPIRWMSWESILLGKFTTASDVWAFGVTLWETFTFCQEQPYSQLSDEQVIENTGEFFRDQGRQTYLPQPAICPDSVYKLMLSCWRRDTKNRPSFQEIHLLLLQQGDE

[6] = target: T3, Beta-adrenergic receptor kinase 1 (Homo sapiens) (UniProt P25098); assay: Selectivity interaction (Kinase panel (Z-LYTE Assay)) EUB0001632a ADRBK1; settings: at 10 µM
T3 sequence (whole entry): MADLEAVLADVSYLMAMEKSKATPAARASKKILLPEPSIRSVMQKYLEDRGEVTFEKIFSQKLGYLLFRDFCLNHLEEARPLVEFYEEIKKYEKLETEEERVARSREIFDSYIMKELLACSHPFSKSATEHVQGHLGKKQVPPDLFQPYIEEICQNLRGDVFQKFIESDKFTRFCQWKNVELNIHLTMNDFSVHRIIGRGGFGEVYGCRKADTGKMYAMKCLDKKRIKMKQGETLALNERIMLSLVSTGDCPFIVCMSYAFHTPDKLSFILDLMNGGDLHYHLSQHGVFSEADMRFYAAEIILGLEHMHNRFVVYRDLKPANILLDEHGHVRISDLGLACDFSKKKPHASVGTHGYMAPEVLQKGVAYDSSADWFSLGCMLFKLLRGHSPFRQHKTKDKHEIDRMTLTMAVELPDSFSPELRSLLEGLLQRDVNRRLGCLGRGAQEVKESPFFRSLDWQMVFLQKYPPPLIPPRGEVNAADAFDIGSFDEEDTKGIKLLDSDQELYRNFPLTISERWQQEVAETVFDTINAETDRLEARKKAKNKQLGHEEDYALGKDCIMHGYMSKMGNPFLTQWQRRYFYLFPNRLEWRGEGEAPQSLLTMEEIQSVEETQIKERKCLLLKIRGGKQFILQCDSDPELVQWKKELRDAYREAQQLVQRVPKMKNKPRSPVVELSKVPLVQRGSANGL

[7] = target: Histone-lysine N-methyltransferase SETD2 (Homo sapiens) (UniProt Q9BYW2); assay: Selectivity interaction (Methyltransferase screen (radiometric assays, panel of 8 PRMTs, 21 protein lysine methyltransferases, 3 DNA methyltransferases, and one RNA methyltransferase)) EUB0000271b SETD2
Sequence of Histone-lysine N-methyltransferase SETD2 (Homo sapiens) (Q9BYW2 whole entry): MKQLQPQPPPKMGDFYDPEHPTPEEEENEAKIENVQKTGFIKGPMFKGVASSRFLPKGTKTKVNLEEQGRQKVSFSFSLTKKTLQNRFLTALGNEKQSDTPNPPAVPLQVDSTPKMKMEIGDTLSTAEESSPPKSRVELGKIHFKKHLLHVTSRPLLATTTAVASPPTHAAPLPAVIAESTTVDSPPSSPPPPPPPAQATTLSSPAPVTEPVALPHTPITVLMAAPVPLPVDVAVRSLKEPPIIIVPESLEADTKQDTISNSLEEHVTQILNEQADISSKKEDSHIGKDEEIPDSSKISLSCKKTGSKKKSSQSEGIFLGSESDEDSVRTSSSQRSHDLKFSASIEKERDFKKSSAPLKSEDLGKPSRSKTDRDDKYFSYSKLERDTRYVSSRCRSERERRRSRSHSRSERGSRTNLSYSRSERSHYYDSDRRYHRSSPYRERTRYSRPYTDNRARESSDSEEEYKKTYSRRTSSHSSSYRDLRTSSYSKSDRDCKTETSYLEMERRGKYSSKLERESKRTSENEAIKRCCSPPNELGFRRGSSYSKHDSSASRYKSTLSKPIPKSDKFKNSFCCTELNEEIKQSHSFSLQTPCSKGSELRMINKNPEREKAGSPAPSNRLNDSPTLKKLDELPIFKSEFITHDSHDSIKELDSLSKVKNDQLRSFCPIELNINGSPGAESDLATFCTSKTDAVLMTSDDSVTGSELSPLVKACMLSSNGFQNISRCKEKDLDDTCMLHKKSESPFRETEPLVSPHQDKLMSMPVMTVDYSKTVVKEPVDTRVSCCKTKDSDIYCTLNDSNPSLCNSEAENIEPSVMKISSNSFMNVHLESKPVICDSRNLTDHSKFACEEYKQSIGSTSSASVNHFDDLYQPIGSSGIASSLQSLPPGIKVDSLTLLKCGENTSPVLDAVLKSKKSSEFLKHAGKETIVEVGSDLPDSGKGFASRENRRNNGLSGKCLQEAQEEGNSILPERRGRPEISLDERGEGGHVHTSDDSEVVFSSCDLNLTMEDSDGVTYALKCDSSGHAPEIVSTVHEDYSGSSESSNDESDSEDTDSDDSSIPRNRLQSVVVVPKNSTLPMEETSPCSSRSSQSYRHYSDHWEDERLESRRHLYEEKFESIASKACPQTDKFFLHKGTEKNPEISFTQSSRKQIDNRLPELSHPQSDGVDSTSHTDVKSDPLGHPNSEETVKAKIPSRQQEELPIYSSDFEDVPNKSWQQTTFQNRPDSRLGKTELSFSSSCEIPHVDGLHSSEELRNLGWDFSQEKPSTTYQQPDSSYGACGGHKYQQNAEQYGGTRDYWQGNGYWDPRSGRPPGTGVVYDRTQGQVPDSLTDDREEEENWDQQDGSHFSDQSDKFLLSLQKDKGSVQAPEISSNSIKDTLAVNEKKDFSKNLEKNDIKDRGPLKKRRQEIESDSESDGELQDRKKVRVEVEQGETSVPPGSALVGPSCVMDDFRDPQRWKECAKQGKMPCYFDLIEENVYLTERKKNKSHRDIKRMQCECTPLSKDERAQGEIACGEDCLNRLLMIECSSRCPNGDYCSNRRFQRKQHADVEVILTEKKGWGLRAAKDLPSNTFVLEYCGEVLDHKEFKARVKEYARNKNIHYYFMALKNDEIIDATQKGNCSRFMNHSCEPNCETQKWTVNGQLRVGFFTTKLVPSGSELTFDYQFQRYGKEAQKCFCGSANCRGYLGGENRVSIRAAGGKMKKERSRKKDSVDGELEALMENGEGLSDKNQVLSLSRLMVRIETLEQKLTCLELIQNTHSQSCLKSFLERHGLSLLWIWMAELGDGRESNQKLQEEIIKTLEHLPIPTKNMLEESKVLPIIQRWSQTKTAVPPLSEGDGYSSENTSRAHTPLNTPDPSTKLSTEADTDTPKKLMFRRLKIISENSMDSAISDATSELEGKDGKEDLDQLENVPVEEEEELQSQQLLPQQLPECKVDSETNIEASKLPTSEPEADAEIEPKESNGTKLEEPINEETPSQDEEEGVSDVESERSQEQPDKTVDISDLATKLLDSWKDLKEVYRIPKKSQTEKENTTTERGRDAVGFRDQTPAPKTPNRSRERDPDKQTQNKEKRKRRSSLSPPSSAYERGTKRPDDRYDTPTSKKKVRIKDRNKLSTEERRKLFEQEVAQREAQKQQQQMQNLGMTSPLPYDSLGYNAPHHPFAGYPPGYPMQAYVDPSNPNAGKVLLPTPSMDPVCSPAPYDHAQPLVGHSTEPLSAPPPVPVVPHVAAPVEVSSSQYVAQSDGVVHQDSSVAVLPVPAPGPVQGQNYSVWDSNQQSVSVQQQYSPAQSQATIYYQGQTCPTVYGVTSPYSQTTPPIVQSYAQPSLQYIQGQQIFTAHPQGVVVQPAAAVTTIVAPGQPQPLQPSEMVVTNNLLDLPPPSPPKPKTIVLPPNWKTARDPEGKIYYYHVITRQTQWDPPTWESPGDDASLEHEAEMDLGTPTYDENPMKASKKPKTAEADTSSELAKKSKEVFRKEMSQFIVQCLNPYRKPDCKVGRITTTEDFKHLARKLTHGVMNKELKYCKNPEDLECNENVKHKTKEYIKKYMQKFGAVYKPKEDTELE

Sequence of 5-hydroxytryptamine receptor 2B (P41595 whole entry): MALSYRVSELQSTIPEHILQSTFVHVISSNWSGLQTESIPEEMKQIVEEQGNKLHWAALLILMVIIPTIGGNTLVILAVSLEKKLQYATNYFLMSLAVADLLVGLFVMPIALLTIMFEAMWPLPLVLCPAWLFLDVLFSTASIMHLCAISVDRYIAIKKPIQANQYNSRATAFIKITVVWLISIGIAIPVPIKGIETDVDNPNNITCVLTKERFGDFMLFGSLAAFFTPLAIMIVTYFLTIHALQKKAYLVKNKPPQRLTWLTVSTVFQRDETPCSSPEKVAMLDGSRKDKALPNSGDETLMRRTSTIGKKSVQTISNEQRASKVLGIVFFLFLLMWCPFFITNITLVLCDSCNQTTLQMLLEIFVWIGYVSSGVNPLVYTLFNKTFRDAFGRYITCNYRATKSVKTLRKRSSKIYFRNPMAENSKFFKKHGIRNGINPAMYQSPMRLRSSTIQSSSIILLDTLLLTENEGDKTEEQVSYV
Sequence of Serine/threonine-protein kinase OSR1 (Homo sapiens) (O95747 2-527 limits assumed): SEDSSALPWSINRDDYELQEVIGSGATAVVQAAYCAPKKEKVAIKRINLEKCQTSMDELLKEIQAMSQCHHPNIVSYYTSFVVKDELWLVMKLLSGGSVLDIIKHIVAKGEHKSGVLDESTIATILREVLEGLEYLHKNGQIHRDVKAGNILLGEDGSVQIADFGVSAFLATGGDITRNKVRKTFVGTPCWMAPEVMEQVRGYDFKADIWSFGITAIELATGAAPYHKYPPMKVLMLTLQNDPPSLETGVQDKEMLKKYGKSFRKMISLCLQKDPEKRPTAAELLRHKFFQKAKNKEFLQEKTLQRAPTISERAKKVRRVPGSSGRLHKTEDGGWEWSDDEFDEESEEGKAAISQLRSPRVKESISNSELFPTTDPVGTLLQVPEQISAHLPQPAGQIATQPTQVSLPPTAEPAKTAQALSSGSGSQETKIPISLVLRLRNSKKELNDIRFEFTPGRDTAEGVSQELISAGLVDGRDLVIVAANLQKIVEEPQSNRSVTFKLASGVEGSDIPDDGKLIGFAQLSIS
Sequence of Protein kinase C theta type (Q04759 whole entry, looked up): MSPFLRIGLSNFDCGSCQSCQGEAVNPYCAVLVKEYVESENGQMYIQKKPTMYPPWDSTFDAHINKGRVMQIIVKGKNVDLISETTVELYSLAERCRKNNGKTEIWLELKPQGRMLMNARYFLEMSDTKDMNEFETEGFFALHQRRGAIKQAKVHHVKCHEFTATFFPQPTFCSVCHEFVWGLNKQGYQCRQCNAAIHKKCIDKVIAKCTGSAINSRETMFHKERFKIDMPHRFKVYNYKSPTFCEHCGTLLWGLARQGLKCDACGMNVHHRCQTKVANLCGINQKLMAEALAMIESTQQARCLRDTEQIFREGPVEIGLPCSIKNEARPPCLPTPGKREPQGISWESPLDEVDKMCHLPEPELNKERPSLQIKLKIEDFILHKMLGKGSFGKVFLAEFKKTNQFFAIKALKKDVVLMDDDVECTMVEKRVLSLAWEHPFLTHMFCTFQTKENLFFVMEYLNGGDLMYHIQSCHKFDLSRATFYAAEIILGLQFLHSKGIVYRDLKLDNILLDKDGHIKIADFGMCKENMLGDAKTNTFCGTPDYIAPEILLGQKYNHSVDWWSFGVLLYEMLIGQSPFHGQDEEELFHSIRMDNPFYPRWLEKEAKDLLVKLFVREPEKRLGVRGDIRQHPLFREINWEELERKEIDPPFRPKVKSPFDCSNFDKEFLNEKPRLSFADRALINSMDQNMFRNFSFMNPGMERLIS

Question: Which % of inhibition [1] does the source give for `CCc1ccccc1C(=O)Nc1n[nH]c2c(C)c(F)c(C3C(C#N)=C(C)N(C)C(C)=C3C#N)cc12` [BAY-3827] here?
Answer: Its % of inhibition is 32.5%.

Question: `Nc1cnc(N2CCc3cc(S(=O)(=O)Nc4c(F)cc(Cl)cc4F)cc(N4CCCC4=O)c32)nc1` [TP-020n] was tested. Which % of control [2] did it give?
Answer: Its % of control is 89%.

Question: With `Cc1cc([C@@H](C)Nc2ccccc2C(=O)O)c2nc(N3CCOCC3)cc(=O)n2c1` [AZD-6482] as the compound, how does the % of control [3] read?
Answer: Its % of control is 100%.

Question: For `N#Cc1cccc(-c2c[nH]c3ncnc(N4CCOCC4)c23)c1`, which % of control [4] is on record?
Answer: Its % of control is 100%.

Question: For `Cc1ccc(-c2ccc3c(ccc4sc5c(c43)NC[C@@H](C)NC5=O)n2)cn1`, which % of inhibition [5] is on record?
Answer: The % of inhibition was -6%.

Question: `Cn1cc(-n2cnc3c(NCc4nc5cc(Cl)c(Cl)cc5[nH]4)nc(N4CCOCC4)nc32)cn1` was tested. Which % of control [6] did it give?
Answer: The % of control was -5.86%.

Question: Which results are given for `Cc1cc(C)cc([C@@H]2c3cc(C)ccc3NC(=O)CN2C(=O)c2ccc(Br)s2)c1`?
Answer: % of activity ([7]; at 1 µM): 104%; % of activity ([7]; at 10 µM): 101%
